According to patent US20210115509A1, “BIOMARKER FOR IDENTIFYING SPECIFIC EXPOSURE TO KETONES AND METHOD OF IDENTIFICATION USING THE SAME” (KOREA INSTITUTE OF SCIENCE AND TECHNOLOGY, priority 2019, published 2021):

What was measured:
[1] = system: BEAS-2B human bronchial epithelial cell line; assay: MTT assay, cytotoxicity of ketone compounds in BEAS-2B cell line; format: cell-based; conditions: human, 48 h
Protocol: BEAS-2B (Korean Cell Line Bank), a human bronchial epithelial cell line, was cultured using RPMI 1640 medium (Gibco, USA) supplemented with 10% FBS until the cells grew to about a confluence of 70 to 80% in a 100 mm dish.
Among ketones belonging to mVOCs (microbial volatile organic compounds) exposed to the environment, acetone, 2-butanone, 2-pentanone, 2-hexanone and 2-heptanone were selected, and the chemicals were dissolved in filtered distilled water (DW). A vehicle concentration was set to 0.1% or less in all experiments.
MTT assay using a BEAS-2B cell line was performed in accordance with the method of Mossman et al. (J. Immunol. Methods, 65, 55-63, 1983).
Specifically, the cells were seeded at a density of 3.5×10^4 cells/well in a 24-well plate and treated with the five ketone compounds dissolved in filtered distilled water, prepared in Example 1-2. After 48 hours, the result was mixed with 5 mg/ml of MTT (3-4,5-dimethylthiazol-2,5-diphenyltetrazolium bromide), added to a tube and incubated at 37° C. for 3 hours. Then, the medium was removed, the formed formazan crystal was dissolved in 500 μl of DMSO, and then 100 μl of the solution was transferred to a 96-well plate to measure an OD (optical density) value at 540 nm.

[2] = system: BEAS-2B human bronchial epithelial cell line; assay: Gene expression change by high-throughput RNA sequencing (NextSeq 500) in ketone-exposed BEAS-2B cells; format: cell-based
Protocol: RNA was extracted from cell samples of ketone-exposed and non-ketone-exposed groups using a TRIzol reagent (Life Technologies, USA) in accordance with the manufacturer's directions to isolate total RNA and the total RNA was purified using a RNeasy mini kit (Qiagen, USA). The concentration of each total RNA sample was determined by a ND-2000 spectrophotometer (Thermo Inc., DE, USA) as a spectrophotometer and Agilent 2100 Bioanalyzer (Agilent Technologies, USA).
The establishment of libraries from the total RNA obtained in Example 2-1 in the experimental group and the normal control group exposed to the ketones was carried out using a QuantSeq 3′ mRNA-Seq Library Prep Kit (Lexogen, Inc., Austria) in accordance with the manufacturer's directions. 500 ng of the total RNA was hybridized with an oligo-dT primer including an Illumina-compatible sequence at the 5′ end of RNA, followed by reverse transcription. After degradation of the RNA template, a second strand was synthesized using a random primer including an Illumina-compatible linker sequence at the 5′ end thereof. Double-stranded libraries were purified using magnetic beads to remove all reaction components. The library was amplified in order to add the entire adapter sequence required for cluster production, and the completed cDNA library was purified from the PCR components.
Sequencing was performed by high-throughput sequencing as single-end 75 sequencing using a NextSeq 500 (IIlumina, Inc., USA). Read count (RC) data was processed based on the quantile normalization method using EdgeR in R (R development Core Team, 2016) using Bioconductor (Gentleman et al., 2004). Gene classification was based on searches performed on DAVID (http://david.abcc.ncifcrf.gov/) and the Medline database (http://www.ncbi.nlm.nih.gov/).
The extracted data were analyzed through normalization using Agilent GeneSpring GX 12.6.1 (Agilent technologies, CA, USA) to analyze the expression pattern of each gene.

[3] = IC5 conc.: Acetone 5.38, 2-Butanone 22.27, 2-Pentanone 5.24, 2-Hexanone 14.82, 2-Heptanone 5.05 mM
[4] = IC20 conc.: Acetone 71.90, 2-Butanone 106.21, 2-Pentanone 39.38, 2-Hexanone 52.51, 2-Heptanone 20.22 mM

CCCCC(C)=O [2-Hexanone, 2-hexanone]
concentration (105) providing a survival rate (viability) of 95% [1]: 14820 µM
concentration (1020) providing a survival rate (viability) of 80% [1]: 52510 µM
Fold change ADRA2A (NM_000681) [2, 3]: 0.410
Fold change ATRNL1 (NR_074088) [2, 3]: 2.058
Fold change C12orf79 (NR_046159) [2, 3]: 0.218
Fold change C14orf80 (NR_046159) [2, 3]: 0.358
Fold change CALML3 (NM_001286399) [2, 3]: 0.358
Fold change CCDC184 (NM_001013635) [2, 3]: 3.872
Fold change CD37 (NM_001040031) [2, 3]: 4.214
Fold change CDHR1 (NM_001171971) [2, 3]: 0.228
Fold change CHL1 (NM_001253387) [2, 3]: 0.296
Fold change COL4A3 (NM_000091) [2, 3]: 4.765
Fold change CRLF2 (NM_022148) [2, 3]: 0.362
Fold change CSF3R (NM_172313) [2, 3]: 0.358
Fold change DNMBP-AS1 (NR_024130) [2, 3]: 14.919
Fold change EGR1 (NM_001964) [2, 3]: 0.448
Fold change GNA14 (NM_004297) [2, 3]: 8.515
Fold change LOC728752 (NR_036504) [2, 3]: 6.212
Fold change PAX8 (NM_003466) [2, 3]: 5.964
Fold change PRRT3-AS1 (NR_046734) [2, 3]: 2.811
Fold change RBP3 (NM_002900) [2, 3]: 0.358
Fold change SEPT14 (NM_207366) [2, 3]: 0.220
Fold change SERPINA12 (NM_001304461) [2, 3]: 0.358
Fold change SLC13A4 (NM_012450) [2, 3]: 4.947
Fold change SPOCK2 (NM_001244950) [2, 3]: 4.851
Fold change TSPAN1 (NM_005727) [2, 3]: 2.828
Fold change USP12-AB1 (NR_046647) [2, 3]: 3.862
Fold change VIPR†-AS1 (NR_046654) [2, 3]: 0.358
Fold change XIRP1 (NM_001198621) [2, 3]: 0.358
Fold change ZFP69B (NM_023070) [2, 3]: 4.095
Fold change ZNF432 (NM_014650) [2, 3]: 5.206
Fold change ZNF487 (NR_026693) [2, 3]: 0.358
Fold change ADRA2A (NM_000681) [2, 4]: 0.179
Fold change ATRNL1 (NR_074088) [2, 4]: 2.281
Fold change C12orf79 (NR_046159) [2, 4]: 0.213
Fold change C14orf80 (NR_046159) [2, 4]: 0.354
Fold change CALML3 (NM_001286399) [2, 4]: 0.354
Fold change CCDC184 (NM_001013635) [2, 4]: 6.982
Fold change CD37 (NM_001040031) [2, 4]: 2.819
Fold change CDHR1 (NM_001171971) [2, 4]: 0.432
Fold change CHL1 (NM_001253387) [2, 4]: 0.364
Fold change COL4A3 (NM_000091) [2, 4]: 4.424
Fold change CRLF2 (NM_022148) [2, 4]: 0.355
Fold change CSF3R (NM_172313) [2, 4]: 0.354
Fold change DNMBP-AS1 (NR_024130) [2, 4]: 5.009
Fold change EGR1 (NM_001964) [2, 4]: 0.328
Fold change GNA14 (NM_004297) [2, 4]: 4.986
Fold change LOC728752 (NR_036504) [2, 4]: 6.982
Fold change PAX8 (NM_003466) [2, 4]: 2.992
Fold change PRRT3-AS1 (NR_046734) [2, 4]: 3.123
Fold change RBP3 (NM_002900) [2, 4]: 0.354
Fold change SEPT14 (NM_207366) [2, 4]: 0.214
Fold change SERPINA12 (NM_001304461) [2, 4]: 0.354
Fold change SLC13A4 (NM_012450) [2, 4]: 7.012
Fold change SPOCK2 (NM_001244950) [2, 4]: 3.833
Fold change TSPAN1 (NM_005727) [2, 4]: 4.272
Fold change USP12-AB1 (NR_046647) [2, 4]: 3.988
Fold change VIPR†-AS1 (NR_046654) [2, 4]: 0.354
Fold change XIRP1 (NM_001198621) [2, 4]: 0.354
Fold change ZFP69B (NM_023070) [2, 4]: 2.573
Fold change ZNF432 (NM_014650) [2, 4]: 4.577
Fold change ZNF487 (NR_026693) [2, 4]: 0.354

CCCC(C)=O [2-Pentanone, 2-pentanone]
concentration (105) providing a survival rate (viability) of 95% [1]: 5240 µM
concentration (1020) providing a survival rate (viability) of 80% [1]: 39330 µM
Fold change ADRA2A (NM_000681) [2, 3]: 0.179
Fold change ATRNL1 (NR_074088) [2, 3]: 4.158
Fold change C12orf79 (NR_046159) [2, 3]: 0.213
Fold change C14orf80 (NR_046159) [2, 3]: 0.354
Fold change CALML3 (NM_001286399) [2, 3]: 0.354
Fold change CCDC184 (NM_001013635) [2, 3]: 4.501
Fold change CD37 (NM_001040031) [2, 3]: 2.028
Fold change CDHR1 (NM_001171971) [2, 3]: 0.216
Fold change CHL1 (NM_001253387) [2, 3]: 0.335
Fold change COL4A3 (NM_000091) [2, 3]: 2.229
Fold change CRLF2 (NM_022148) [2, 3]: 0.355
Fold change CSF3R (NM_172313) [2, 3]: 0.354
Fold change DNMBP-AS1 (NR_024130) [2, 3]: 2.406
Fold change EGR1 (NM_001964) [2, 3]: 0.419
Fold change GNA14 (NM_004297) [2, 3]: 8.261
Fold change LOC728752 (NR_036504) [2, 3]: 7.322
Fold change PAX8 (NM_003466) [2, 3]: 2.723
Fold change PRRT3-AS1 (NR_046734) [2, 3]: 2.817
Fold change RBP3 (NM_002900) [2, 3]: 0.354
Fold change SEPT14 (NM_207366) [2, 3]: 0.214
Fold change SERPINA12 (NM_001304461) [2, 3]: 0.354
Fold change SLC13A4 (NM_012450) [2, 3]: 8.995
Fold change SPOCK2 (NM_001244950) [2, 3]: 4.031
Fold change TSPAN1 (NM_005727) [2, 3]: 4.281
Fold change USP12-AB1 (NR_046647) [2, 3]: 7.329
Fold change VIPR†-AS1 (NR_046654) [2, 3]: 0.354
Fold change XIRP1 (NM_001198621) [2, 3]: 0.354
Fold change ZFP69B (NM_023070) [2, 3]: 2.472
Fold change ZNF432 (NM_014650) [2, 3]: 4.086
Fold change ZNF487 (NR_026693) [2, 3]: 0.354
Fold change ADRA2A (NM_000681) [2, 4]: 0.184
Fold change ATRNL1 (NR_074088) [2, 4]: 2.665
Fold change C12orf79 (NR_046159) [2, 4]: 0.216
Fold change C14orf80 (NR_046159) [2, 4]: 0.356
Fold change CALML3 (NM_001286399) [2, 4]: 0.356
Fold change CCDC184 (NM_001013635) [2, 4]: 2.387
Fold change CD37 (NM_001040031) [2, 4]: 3.272
Fold change CDHR1 (NM_001171971) [2, 4]: 0.223
Fold change CHL1 (NM_001253387) [2, 4]: 0.273
Fold change COL4A3 (NM_000091) [2, 4]: 5.033
Fold change CRLF2 (NM_022148) [2, 4]: 0.359
Fold change CSF3R (NM_172313) [2, 4]: 0.356
Fold change DNMBP-AS1 (NR_024130) [2, 4]: 8.289
Fold change EGR1 (NM_001964) [2, 4]: 0.332
Fold change GNA14 (NM_004297) [2, 4]: 6.776
Fold change LOC728752 (NR_036504) [2, 4]: 5.683
Fold change PAX8 (NM_003466) [2, 4]: 2.277
Fold change PRRT3-AS1 (NR_046734) [2, 4]: 3.902
Fold change RBP3 (NM_002900) [2, 4]: 0.356
Fold change SEPT14 (NM_207366) [2, 4]: 0.218
Fold change SERPINA12 (NM_001304461) [2, 4]: 0.356
Fold change SLC13A4 (NM_012450) [2, 4]: 2.153
Fold change SPOCK2 (NM_001244950) [2, 4]: 2.181
Fold change TSPAN1 (NM_005727) [2, 4]: 3.938
Fold change USP12-AB1 (NR_046647) [2, 4]: 2.362
Fold change VIPR†-AS1 (NR_046654) [2, 4]: 0.356
Fold change XIRP1 (NM_001198621) [2, 4]: 0.356
Fold change ZFP69B (NM_023070) [2, 4]: 2.299
Fold change ZNF432 (NM_014650) [2, 4]: 5.290
Fold change ZNF487 (NR_026693) [2, 4]: 0.356
